Experimental data taken from patent US9546176B2, “Small molecule bicyclic and tricyclic CFTR correctors” (DISCOVERYBIOMED, INC., priority 2012, dated 2017).

biological target: T1, delF508-CFTR (Homo sapiens, UniProt P13569, DEL508-508); assay: SPQ halide-sensitive fluorescence dye assay for rescue of halide efflux (8-point concentration-response); type: cell-based; conditions: CFBE41o- cells, 48 h
T1 construct: endogenous in cells; host or cells: CFBE41o- human CF bronchial epithelial cells (delF508 homozygous)
Description: The method of profiling can include detecting the rescue of halide efflux from a cell. The step of detecting a rescue of halide efflux from the cell can be monitored using the halide quenched dye 6-methoxy-N-(3-sulfopropyl)-quinolinium (SPQ, Molecular Probes Inc., Eugene, Oreg.). In this method, cells are treated with a compound as described herein for a period of time (e.g., 48 hours). The rescue or correction of halide efflux is then detected using the SPQ assay with the halide dye. […] Optionally, the halide efflux is chloride efflux. The method of screening can further comprise performing the method with multiple concentrations of the compound.
The compounds were initially subjected to the SPQ halide-sensitive fluorescence dye profiling assay for rescue or correction of membrane chloride ion permeability or transport with an 8-point concentration-response curve. The EC50 values for the compounds described herein were determined using SPQ (Table 1). The ΔSPQ value was calculated by determining the difference between the maximum and minimum SPQ values for the compounds.
To perform the SPQ high throughput screening assay, CFBE41o-cells were seeded into 96-well microtiter plates and were loaded with the fluorescent halide-sensitive dye, SPQ, in serum-containing culture medium. Certain wells were loaded with known positive control corrector molecules, including the industry standard Vertex 809 (VX-809; Vertex Pharmaceuticals, Cambridge, Mass.) at 3 μM, which is the maximally effective profiling dose for VX-809. The test compounds were loaded into wells and were tested in triplicate wells at a 10 μM dose and incubated over 48 hours at room temperature. During the 48 hour period, SPQ was absorbed. Plates were washed in a sodium chloride (NaCl) based Ringer and read once over two minutes to set the baseline SPQ fluorescence activity. Then, NaCl was replaced by sodium nitrate (NaNO3) based Ringer. The plates were read twice over four minutes. The primary high throughput screen (HTS) data were analyzed to detect any function of rescued delF508-CFTR under basal conditions. The plate was read up to two times to complete the SPQ HTS assay.

T1 sequence (P13569 with tags, fused parts or gaps DEL508-508): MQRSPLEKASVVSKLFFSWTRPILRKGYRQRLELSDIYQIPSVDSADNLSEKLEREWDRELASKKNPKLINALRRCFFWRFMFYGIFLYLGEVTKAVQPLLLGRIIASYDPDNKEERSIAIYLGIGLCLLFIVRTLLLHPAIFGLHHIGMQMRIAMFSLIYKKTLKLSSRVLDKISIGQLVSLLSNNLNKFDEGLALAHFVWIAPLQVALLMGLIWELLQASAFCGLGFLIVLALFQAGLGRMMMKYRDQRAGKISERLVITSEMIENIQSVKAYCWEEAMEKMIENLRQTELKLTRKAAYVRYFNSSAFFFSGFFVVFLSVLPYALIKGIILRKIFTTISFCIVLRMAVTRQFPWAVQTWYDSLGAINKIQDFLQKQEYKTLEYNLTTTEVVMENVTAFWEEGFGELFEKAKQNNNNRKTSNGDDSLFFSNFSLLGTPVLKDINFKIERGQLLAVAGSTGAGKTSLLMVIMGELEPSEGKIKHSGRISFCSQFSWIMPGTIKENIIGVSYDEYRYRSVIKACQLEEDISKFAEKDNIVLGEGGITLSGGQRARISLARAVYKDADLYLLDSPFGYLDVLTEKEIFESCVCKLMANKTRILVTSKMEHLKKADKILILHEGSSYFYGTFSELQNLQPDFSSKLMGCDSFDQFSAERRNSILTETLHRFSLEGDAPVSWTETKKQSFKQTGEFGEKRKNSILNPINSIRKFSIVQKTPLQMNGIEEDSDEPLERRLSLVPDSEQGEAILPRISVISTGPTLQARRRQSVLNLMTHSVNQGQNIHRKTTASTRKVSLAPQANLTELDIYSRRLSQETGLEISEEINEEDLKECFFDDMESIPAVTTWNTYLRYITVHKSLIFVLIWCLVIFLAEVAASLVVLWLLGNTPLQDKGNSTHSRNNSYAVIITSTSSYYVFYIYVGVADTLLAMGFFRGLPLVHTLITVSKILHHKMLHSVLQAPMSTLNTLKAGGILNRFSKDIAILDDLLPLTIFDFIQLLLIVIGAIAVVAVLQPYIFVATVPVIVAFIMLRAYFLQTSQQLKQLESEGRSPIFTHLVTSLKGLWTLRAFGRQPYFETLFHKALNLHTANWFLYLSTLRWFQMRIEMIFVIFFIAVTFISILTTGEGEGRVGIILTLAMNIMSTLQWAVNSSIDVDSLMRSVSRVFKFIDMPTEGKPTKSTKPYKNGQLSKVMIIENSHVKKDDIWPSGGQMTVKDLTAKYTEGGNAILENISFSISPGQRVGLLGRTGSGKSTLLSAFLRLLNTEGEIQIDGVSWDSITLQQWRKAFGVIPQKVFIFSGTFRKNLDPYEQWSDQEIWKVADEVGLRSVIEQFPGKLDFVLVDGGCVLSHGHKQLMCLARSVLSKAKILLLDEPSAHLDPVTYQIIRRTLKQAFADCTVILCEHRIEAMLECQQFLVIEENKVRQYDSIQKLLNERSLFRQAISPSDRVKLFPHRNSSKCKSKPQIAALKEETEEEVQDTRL

SPQ EC50 | ΔSPQ (difference between maximum and minimum SPQ values) [RFU] | Compound
No effect |  | Cc1cn2c3c(=O)n(C)c(=O)n(C)c3nc2n1-c1ccccn1 [Compound A-4]
 | 5779 | CCn1c(=O)c2c(nc3n(-c4ccc(F)cc4)c(C)c(C)n23)n(C)c1=O [Compound I-7]
 | 4687 | Cc1ccc(N2CC(C)Cn3c2nc2c3c(=O)[nH]c(=O)n2C)cc1 (stereo not drawn) [IV-9]
 | 2279 | COc1ccc(N2CC(C)Cn3c2nc2c3c(=O)n(C)c(=O)n2C)cc1 (stereo not drawn) [IV-2]
 | 12224 | CCCn1c(=O)c2c(nc3n2CCCN3Cc2ccccc2)n(C)c1=O [IV-1]
 | 4351 | C/C=C/CN1N=C(C)Cn2c1nc1c2c(=O)n(CCC)c(=O)n1C [Compound V-20]
No effect |  | Cn1c(=O)c2[nH]c(N3CCC(O)CC3)nc2n(C)c1=O [Compound B-15]
No effect |  | Cn1c(=O)c2nc(N3CCN(Cc4ccc(O)cc4)CC3)[nH]c2n(C)c1=O [Compound B-7]
 | 7073 | C=CCn1c(C)cn2c3c(=O)n(Cc4cccc(C)c4)c(=O)n(C)c3nc12 [Compound I-21]
 | 3639 | Cc1c(C)n2c3c(=O)n(C/C=C/c4ccccc4)c(=O)n(C)c3nc2n1CCCO [Compound I-50]
 | 1927 | C=C(C)CN1N=C(C)Cn2c1nc1c2c(=O)n(C)c(=O)n1C [Compound V-25]
 | 9652 | CCC(C)n1c(C)c(C)n2c3c(=O)n(CC(=O)OC)c(=O)n(C)c3nc12 (stereo not drawn) [Compound I-49]
 | 5027 | CCCCn1c(C)cn2c3c(=O)n(CC(=O)OC)c(=O)n(C)c3nc12 [Compound I-46]
 | 9814 | Cn1c(=O)c2[nH]c(N3CCN(c4ccccc4O)CC3)nc2n(C)c1=O [Compound III-2]
 | 3361 | CCC(C)n1c(C)c(C)n2c3c(=O)n(CC)c(=O)n(C)c3nc12 (stereo not drawn) [Compound I-58]
No effect |  | Cc1cn2c3c(=O)n(C)c(=O)n(C)c3nc2n1CCN(C)C [Compound A-8]
 | 9362 | C=CCn1c(=O)c2c(nc3n(-c4ccccc4C)c(C)c(C)n23)n(C)c1=O [Compound I-20]
 | 10602 | C=C(C)CN1N=C(C)Cn2c1nc1c2c(=O)n(C/C=C/C)c(=O)n1C [Compound V-2]
 | 18574 | CCn1c(=O)c2c(nc3n(C(C)c4ccccc4)c(C)cn23)n(C)c1=O (stereo not drawn) [Compound I-30]
 | 800 | COc1ccc(CN2CCN(c3nc4c(=O)n(C)c(=O)n(C)c4[nH]3)CC2)cc1 [Compound B-7.1]
 | 7505 | C=C(C)CN1N=C(C)C(C)n2c1nc1c2c(=O)n(C/C=C/C)c(=O)n1C (stereo not drawn) [Compound V-21]
 | 5235 | CCCn1c(=O)c2c(nc3n(-c4ccccc4O)c(C)c(C)n23)n(C)c1=O [Compound I-18]
 | 3625 | C=C(C)Cn1c(=O)c2c(nc3oc(C(C)(C)C)cn32)n(C)c1=O [II-4]

same assay, conditions: CFBE41o- cells, 48 h; read-out: SPQ EC50

EC50 [µM] | Compound
> 30 | COc1ccc(CN2CCN(c3nc4c(=O)n(C)c(=O)n(C)c4[nH]3)CC2)cc1OC [Compound B-7.2]
3.8 | CCOc1ccc(CN2CCN(c3nc4c(=O)n(C)c(=O)n(C)c4[nH]3)CC2)cc1 [Compound B-7.3]
10.1 | CCn1c(=O)c2c(nc3n(-c4ccc(F)cc4)c(C)c(C)n23)n(C)c1=O [Compound I-7]
10.2 | Cc1ccc(N2CC(C)Cn3c2nc2c3c(=O)[nH]c(=O)n2C)cc1 (stereo not drawn) [IV-9]
> 30 | COc1ccc(N2CC(C)Cn3c2nc2c3c(=O)n(C)c(=O)n2C)cc1 (stereo not drawn) [IV-2]
10.7 | CCCn1c(=O)c2c(nc3n2CCCN3Cc2ccccc2)n(C)c1=O [IV-1]
7.3 | C/C=C/CN1N=C(C)Cn2c1nc1c2c(=O)n(CCC)c(=O)n1C [Compound V-20]
9.4 | C=CCn1c(C)cn2c3c(=O)n(Cc4cccc(C)c4)c(=O)n(C)c3nc12 [Compound I-21]
3.5 | COc1ccc(N2CCN(c3nc4c([nH]3)c(=O)n(C)c(=O)n4C)CC2)cc1 [Compound B-7.17]
> 30 | Cc1c(C)n2c3c(=O)n(C/C=C/c4ccccc4)c(=O)n(C)c3nc2n1CCCO [Compound I-50]
10.6 | C=C(C)CN1N=C(C)Cn2c1nc1c2c(=O)n(C)c(=O)n1C [Compound V-25]
6.2 | COc1ccc(C(=O)N2CCN(c3nc4c(=O)n(C)c(=O)n(C)c4[nH]3)CC2)cc1 [Compound B-7.12]
9 | CCC(C)n1c(C)c(C)n2c3c(=O)n(CC(=O)OC)c(=O)n(C)c3nc12 (stereo not drawn) [Compound I-49]
10.6 | CCCCn1c(C)cn2c3c(=O)n(CC(=O)OC)c(=O)n(C)c3nc12 [Compound I-46]
3.6 | Cn1c(=O)c2[nH]c(N3CCN(c4ccccc4O)CC3)nc2n(C)c1=O [Compound III-2]
8.4 | CCC(C)n1c(C)c(C)n2c3c(=O)n(CC)c(=O)n(C)c3nc12 (stereo not drawn) [Compound I-58]
3.8 | C=CCn1c(=O)c2c(nc3n(-c4ccccc4C)c(C)c(C)n23)n(C)c1=O [Compound I-20]
17.1 | C=C(C)CN1N=C(C)Cn2c1nc1c2c(=O)n(C/C=C/C)c(=O)n1C [Compound V-2]
22.6 | CCn1c(=O)c2c(nc3n(C(C)c4ccccc4)c(C)cn23)n(C)c1=O (stereo not drawn) [Compound I-30]
0.9 | COc1ccc(CN2CCN(c3nc4c(=O)n(C)c(=O)n(C)c4[nH]3)CC2)cc1 [Compound B-7.1]
> 30 | C=C(C)CN1N=C(C)C(C)n2c1nc1c2c(=O)n(C/C=C/C)c(=O)n1C (stereo not drawn) [Compound V-21]
7.1 | CCCn1c(=O)c2c(nc3n(-c4ccccc4O)c(C)c(C)n23)n(C)c1=O [Compound I-18]
> 30 | C=C(C)Cn1c(=O)c2c(nc3oc(C(C)(C)C)cn32)n(C)c1=O [II-4]

same assay, conditions: versus VX-809

potency and efficacy compared with VX-809 in SPQ assay | Compound
superior potency and efficacy to VX-809 | Cn1c(=O)c2[nH]c(N3CCN(c4ccccc4O)CC3)nc2n(C)c1=O [Compound III-2]
superior potency and efficacy to VX-809 | COc1ccc(CN2CCN(c3nc4c(=O)n(C)c(=O)n(C)c4[nH]3)CC2)cc1 [Compound B-7.1]
